20 molecules from US9233964B2, “Sulfamide piperazine derivatives as protein tyrosine kinase inhibitors and pharmaceutical use therof” (LEO PHARMA A/S, priority 2011, dated 2016) can be followed below.

The structures appear in SMILES notation. Where only a bound is given, the exact number is not on record here.

Holding throughout (format): biochemical
The target of assay [1] is T1, JAK2 (Homo sapiens, UniProt O60674).
T1 construct: All four purified enzymes contain only the catalytic domain; His (N); purchased Carna Biosciences, Inc; host or cells: baculovirus expression system
Briefly: JAK kinase assay (HTRF, phosphorylation of synthetic peptide), JAK2. Conditions: catalytic domain, ATP at Km (4 μM); read-out: JAK2 kinase inhibitory activity (EC50). Summed up: (§1)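 Catalytic-domain human JAK1 (GST-tagged, aa 850-1154) or His-tagged JAK2, baculovirus-expressed, phosphorylated 1 µM biotinylated TK peptide at Km ATP (JAK1 7 µM, 10 mM MgCl2, 50 nM SEB; JAK2 4 µM, 5 mM MgCl2) in pH 7.0 Hepes, 20-30 min RT. EDTA stop; overnight streptavidin-XL665/cryptate HTRF read.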
Background: TR-FRET usually uses a lanthanide donor and a delayed reading to cut background.

Assay [2] concerns the target T2, TYK2 (Homo sapiens, UniProt P29597).
T2 construct: JAK1 (aa 850-1154) and TYK2 (aa 871-1187) are expressed with an N-terminally fused GST-tag; GST (N); purchased Carna Biosciences, Inc; host or cells: baculovirus expression system
T2 sequence (P29597 871-1187): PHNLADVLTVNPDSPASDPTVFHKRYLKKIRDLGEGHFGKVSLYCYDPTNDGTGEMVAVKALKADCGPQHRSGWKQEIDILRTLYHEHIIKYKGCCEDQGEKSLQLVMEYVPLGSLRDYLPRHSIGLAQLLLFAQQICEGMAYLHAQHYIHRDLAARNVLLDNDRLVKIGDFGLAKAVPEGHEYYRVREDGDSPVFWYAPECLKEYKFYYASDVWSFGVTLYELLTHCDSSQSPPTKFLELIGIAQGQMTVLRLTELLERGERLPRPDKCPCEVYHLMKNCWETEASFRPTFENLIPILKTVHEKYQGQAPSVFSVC
Briefly: JAK kinase assay (HTRF, phosphorylation of synthetic peptide), TYK2. As to conditions: catalytic domain, ATP at Km (13 μM); read-out: TYK2 kinase inhibitory activity (EC50). Summed up:
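1 µM biotinylated TK peptide at Km ATP in pH 7.0 Hepes, 20-30 min RT. EDTA stop; overnight streptavidin-XL665/cryptate HTRF read.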

Assay [3] concerns the target T3, JAK1 (Homo sapiens, UniProt P23458).
T3 construct: JAK1 (aa 850-1154) and TYK2 (aa 871-1187) are expressed with an N-terminally fused GST-tag; GST (N); purchased Carna Biosciences, Inc; host or cells: baculovirus expression system
As to the kind of experiment: JAK kinase assay (HTRF, phosphorylation of synthetic peptide), JAK1. Conditions: catalytic domain, ATP at Km (7 μM); read-out: JAK1 kinase inhibitory activity (EC50). Summed up:
as §1

Assay [4] addresses T4, JAK3 (Homo sapiens, UniProt P52333).
T4 construct: All four purified enzymes contain only the catalytic domain; His (N); purchased Carna Biosciences, Inc; host or cells: baculovirus expression system
As to the kind of experiment: JAK kinase assay (HTRF, phosphorylation of synthetic peptide), JAK3. Conditions: catalytic domain, ATP at Km (2 μM); read-out: JAK3 kinase inhibitory activity (EC50).

T3 sequence (P23458 850-1154): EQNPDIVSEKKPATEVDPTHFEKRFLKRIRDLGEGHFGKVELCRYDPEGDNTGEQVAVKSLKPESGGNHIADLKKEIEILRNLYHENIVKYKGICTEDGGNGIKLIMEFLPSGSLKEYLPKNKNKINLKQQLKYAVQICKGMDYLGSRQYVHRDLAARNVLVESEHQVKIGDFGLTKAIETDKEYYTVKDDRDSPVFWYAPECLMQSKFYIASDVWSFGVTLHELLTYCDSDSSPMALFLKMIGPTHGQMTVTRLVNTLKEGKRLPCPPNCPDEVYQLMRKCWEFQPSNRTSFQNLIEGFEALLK
T1 sequence (O60674 849-1124 limits assumed): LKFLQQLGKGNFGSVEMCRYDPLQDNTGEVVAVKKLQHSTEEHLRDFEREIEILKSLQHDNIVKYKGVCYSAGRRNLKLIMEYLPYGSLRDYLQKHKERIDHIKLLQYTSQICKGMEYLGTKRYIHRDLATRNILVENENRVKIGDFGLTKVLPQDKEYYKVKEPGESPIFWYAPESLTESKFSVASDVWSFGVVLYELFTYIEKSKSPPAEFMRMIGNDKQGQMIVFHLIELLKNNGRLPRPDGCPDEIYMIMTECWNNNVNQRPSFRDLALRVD
T4 sequence (P52333 822-1111 limits assumed): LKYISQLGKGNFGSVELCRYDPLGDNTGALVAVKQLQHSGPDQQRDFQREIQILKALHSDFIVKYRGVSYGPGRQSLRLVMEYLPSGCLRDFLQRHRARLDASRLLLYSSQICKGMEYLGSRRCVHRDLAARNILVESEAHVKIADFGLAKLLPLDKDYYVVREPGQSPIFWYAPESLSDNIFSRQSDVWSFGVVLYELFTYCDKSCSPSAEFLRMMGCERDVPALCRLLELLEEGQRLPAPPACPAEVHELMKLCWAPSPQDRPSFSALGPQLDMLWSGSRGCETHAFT

In the case of `CN(C)S(=O)(=O)c1ccc(CN(C)S(=O)(=O)N2CCN(c3ncnc4[nH]ccc34)CC23CC3)o1` [Example 65, N-[[5-(dimethylsulfamoyl)-2-furyl]methyl]-N-methyl-5-(7H-pyrrolo[2,3-d]pyrimidin-4-yl)-5,8-diazaspiro[2.5]octane-8-sulfonamide], the EC50 in assay [1] is less than 100 nM; in assay [2] it was 100 to 500 nM; in assay [3] it was less than 100 nM; in assay [4], 100 to 500 nM.

On to `CN(CCn1cccn1)S(=O)(=O)N1CCN(c2ncnc3[nH]ccc23)CC12CC2` [Example 66, N-methyl-N-(2-pyrazol-1-ylethyl)-5-(7H-pyrrolo[2,3-d]pyrimidin-4-yl)-5,8-diazaspiro[2.5]octane-8-sulfonamide], for which the EC50 is less than 100 nM in assay [1], 100 to 500 nM in assay [2], less than 100 nM in assay [3] and less than 100 nM in assay [4].

On to `Cc1cc(CN(C)S(=O)(=O)N2CCN(c3ncnc4[nH]ccc34)CC23CC3)on1` [Example 67, N-methyl-N-[(3-methylisoxazol-5-yl)methyl]-5-(7H-pyrrolo[2,3-d]pyrimidin-4-yl)-5,8-diazaspiro[2.5]octane-8-sulfonamide], for which the EC50 is less than 100 nM in assay [1], 100 to 500 nM in assay [2], less than 100 nM in assay [3] and less than 100 nM in assay [4].

For `CN(Cc1ccno1)S(=O)(=O)N1CCN(c2ncnc3[nH]ccc23)CC12CC2` [Example 68, N-(isoxazol-5-ylmethyl)-N-methyl-5-(7H-pyrrolo[2,3-d]pyrimidin-4-yl)-5,8-diazaspiro[2.5]octane-8-sulfonamide], the EC50 in assay [1] is less than 100 nM; in assay [2], 100 to 500 nM; in assay [3], less than 100 nM; in assay [4], less than 100 nM.

`CN(CCOc1ccc(Cl)cc1)S(=O)(=O)N1CCN(c2ncnc3[nH]ccc23)CC12CC2` [Example 69, N-[2-(4-chlorophenoxy)ethyl]-N-methyl-5-(7H-pyrrolo[2,3-d]pyrimidin-4-yl)-5,8-diazaspiro[2.5]octane-8-sulfonamide]: the EC50 in assay [1] is less than 100 nM; in assay [2], greater than 500 nM; in assay [3], less than 100 nM; in assay [4], 100 to 500 nM.

On to `CN(CCOc1ccccc1C#N)S(=O)(=O)N1CCN(c2ncnc3[nH]ccc23)CC12CC2` [Example 70, N-[2-(2-cyanophenoxy)ethyl]-N-methyl-5-(7H-pyrrolo[2,3-d]pyrimidin-4-yl)-5,8-diazaspiro[2.5]octane-8-sulfonamide], for which the EC50 in assay [1] is less than 100 nM; in assay [2], greater than 500 nM; in assay [3] it was less than 100 nM; in assay [4], 100 to 500 nM.

Regarding `CN(CCOc1cccc(C#N)c1)S(=O)(=O)N1CCN(c2ncnc3[nH]ccc23)CC12CC2` [Example 71, N-[2-(3-cyanophenoxy)ethyl]-N-methyl-5-(7H-pyrrolo[2,3-d]pyrimidin-4-yl)-5,8-diazaspiro[2.5]octane-8-sulfonamide], the EC50 is less than 100 nM in assay [1], greater than 500 nM in assay [2], less than 100 nM in assay [3] and 100 to 500 nM in assay [4].

`CN(CCOc1ccc(C#N)cc1)S(=O)(=O)N1CCN(c2ncnc3[nH]ccc23)CC12CC2` [Example 72, N-[2-(4-cyanophenoxy)ethyl]-N-methyl-5-(7H-pyrrolo[2,3-d]pyrimidin-4-yl)-5,8-diazaspiro[2.5]octane-8-sulfonamide]: the EC50 in assay [1] is less than 100 nM; in assay [2], greater than 500 nM; in assay [3] it was less than 100 nM; in assay [4], 100 to 500 nM.

For the molecule `CN(CC1CCCC1)S(=O)(=O)N1CCN(c2ncnc3[nH]ccc23)CC12CC2` [Example 73, N-(cyclopentylmethyl)-N-methyl-5-(7H-pyrrolo[2,3-d]pyrimidin-4-yl)-5,8-diazaspiro[2.5]octane-8-sulfonamide], the EC50 in assay [1], in assay [2], in assay [3] and in assay [4] was less than 100 nM in each case.

On to `CN(CCC1CCCC1)S(=O)(=O)N1CCN(c2ncnc3[nH]ccc23)CC12CC2` [Example 74, N-(2-cyclopentylethyl)-N-methyl-5-(7H-pyrrolo[2,3-d]pyrimidin-4-yl)-5,8-diazaspiro[2.5]octane-8-sulfonamide], for which the EC50 in assay [1] is less than 100 nM; in assay [2] it was 100 to 500 nM; in assay [3] it was less than 100 nM; in assay [4], 100 to 500 nM.

With `CN(CCC1CCS(=O)(=O)C1)S(=O)(=O)N1CCN(c2ncnc3[nH]ccc23)CC12CC2` (centres unmarked) [Example 75, N-[2-(1,1-dioxothiolan-3-yl)ethyl]-N-methyl-5-(7H-pyrrolo[2,3-d]pyrimidin-4-yl)-5,8-diazaspiro[2.5]octane-8-sulfonamide], the EC50 was less than 100 nM in assay [1], 100 to 500 nM in assay [2], less than 100 nM in assay [3] and less than 100 nM in assay [4].

As to `CN(CC1CCCS(=O)(=O)C1)S(=O)(=O)N1CCN(c2ncnc3[nH]ccc23)CC12CC2` (centres unmarked) [Example 76, N-[(1,1-dioxothian-3-yl)methyl]-N-methyl-5-(7H-pyrrolo[2,3-d]pyrimidin-4-yl)-5,8-diazaspiro[2.5]octane-8-sulfonamide], the EC50 is less than 100 nM in assay [1], 100 to 500 nM in assay [2], less than 100 nM in assay [3] and less than 100 nM in assay [4].

Turning to `CN(Cc1ccccc1F)S(=O)(=O)N1CCN(c2ncnc3[nH]ccc23)CC12CC2` [Example 77, N-[(2-fluorophenyl)methyl]-N-methyl-5-(7H-pyrrolo[2,3-d]pyrimidin-4-yl)-5,8-diazaspiro[2.5]octane-8-sulfonamide], the EC50 was less than 100 nM in assay [1], 100 to 500 nM in assay [2], less than 100 nM in assay [3] and 100 to 500 nM in assay [4].

For `CN(Cc1cccc(F)c1)S(=O)(=O)N1CCN(c2ncnc3[nH]ccc23)CC12CC2` [Example 78, N-[(3-fluorophenyl)methyl]-N-methyl-5-(7H-pyrrolo[2,3-d]pyrimidin-4-yl)-5,8-diazaspiro[2.5]octane-8-sulfonamide], the EC50 in assay [1] is less than 100 nM; in assay [2] it was 100 to 500 nM; in assay [3] it was less than 100 nM; in assay [4], less than 100 nM.

Consider `CN(Cc1ccc(F)cc1)S(=O)(=O)N1CCN(c2ncnc3[nH]ccc23)CC12CC2` [Example 79, N-[(4-fluorophenyl)methyl]-N-methyl-5-(7H-pyrrolo[2,3-d]pyrimidin-4-yl)-5,8-diazaspiro[2.5]octane-8-sulfonamide], for which the EC50 in assay [1] is less than 100 nM; in assay [2], 100 to 500 nM; in assay [3], less than 100 nM; in assay [4] it was less than 100 nM.

As to `CN(Cc1ccc(OC(F)(F)F)cc1)S(=O)(=O)N1CCN(c2ncnc3[nH]ccc23)CC12CC2` [Example 80, N-methyl-5-(7H-pyrrolo[2,3-d]pyrimidin-4-yl)-N-[[4-(trifluoromethoxy)phenyl]methyl]-5,8-diazaspiro[2.5]octane-8-sulfonamide], the EC50 is 100 to 500 nM in assay [1], greater than 500 nM in assay [2], 100 to 500 nM in assay [3] and greater than 500 nM in assay [4].

Take `CN(CCC1CC1)S(=O)(=O)N1CCN(c2ncnc3[nH]ccc23)CC12CC2` [Example 82, N-(2-cyclopropylethyl)-N-methyl-5-(7H-pyrrolo[2,3-d]pyrimidin-4-yl)-5,8-diazaspiro[2.5]octane-8-sulfonamide]: the concentration for a half-maximal effect (EC50) in assay [1], in assay [2], in assay [3] and in assay [4] was less than 100 nM throughout.

`CN(Cc1ccc(S(C)(=O)=O)cc1)S(=O)(=O)N1CCN(c2ncnc3[nH]ccc23)CC12CC2` [Example 83, N-methyl-N-[(4-methylsulfonylphenyl)methyl]-5-(7H-pyrrolo[2,3-d]pyrimidin-4-yl)-5,8-diazaspiro[2.5]octane-8-sulfonamide]: the EC50 in assay [1], in assay [2], in assay [3] and in assay [4] was less than 100 nM throughout.

For the molecule `CN(CC1CCC(C(C)(C)C)CC1)S(=O)(=O)N1CCN(c2ncnc3[nH]ccc23)CC12CC2` (centres unmarked) [Example 84, N-[(4-tert-butylcyclohexyl)methyl]-N-methyl-5-(7H-pyrrolo[2,3-d]pyrimidin-4-yl)-5,8-diazaspiro[2.5]octane-8-sulfonamide], the EC50 in assay [1], in assay [2], in assay [3] and in assay [4] was greater than 500 nM in each case.

Consider `CN(CC1CC(F)(F)C1)S(=O)(=O)N1CCN(c2ncnc3[nH]ccc23)CC12CC2` [Example 85, N-[(3,3-difluorocyclobutyl)methyl]-N-methyl-5-(7H-pyrrolo[2,3-d]pyrimidin-4-yl)-5,8-diazaspiro[2.5]octane-8-sulfonamide], for which the EC50 in assay [1], in assay [2], in assay [3] and in assay [4] was less than 100 nM in each case.

By EC50 is commonly meant the concentration giving half of the maximal effect.
